Assay results taken from publication PMC7822874, “Chemoprotective antimalarials identified through quantitative high-throughput screening of Plasmodium blood and liver stage parasites” (Scientific Reports, 2021).

System: Plasmodium falciparum Dd2 asexual blood stage parasites
Experiment: microbe, parasite or virus in culture
Parameters: species or system Plasmodium falciparum Dd2 in human erythrocytes; single determination (one 11-point concentration-response curve)
Conditions: Plasmodium falciparum, DD2, Erythrocyte, 72 h; read-out: AC50

Row | Structure (SMILES) | AC50 [µM]
1 | COc1cccc(CN2CCCC(N3CCN(c4cccc(C(F)(F)F)c4)CC3)C2)c1O (stereo not shown) [NCGC00428830-01] | 0.841
2 | COc1ccc(CNCc2ccc(C)s2)cc1OCC(O)CN1CCCCC1 (stereo not shown) [NCGC00428936-01] | 9.44
3 | O=C(NC1CCCC1)c1ccc(OC2CCN(CCCC(F)(F)F)CC2)c(Cl)c1 [NCGC00429036-01] | 9.44
4 | O=C(c1ccc(OC2CCN(Cc3c[nH]c4ccccc34)CC2)cc1)N1CCCCC1 [NCGC00429064-01] | 15
5 | CC(=O)Nc1ccc2nnc(-c3ccc(C(=O)N4CCCCCC4)cc3)n2c1 [NCGC00429830-01] | 8.41
6 | CCC(=O)Nc1ccc2nnc(-c3ccc(C(=O)Nc4ccc5c(c4)OCCO5)cc3)n2c1 [NCGC00429833-01] | 7.5
7 | CCN1CCN(C(=O)c2ccc(-c3nnc4ccc(NC(=O)C5CC5)cn34)cc2)CC1 [NCGC00429842-01] | 6.68
8 | COc1ccc(NC(=O)c2ccc(-c3nnc4ccc(NC(=O)C5CC5)cn34)cc2)cc1 [NCGC00429845-01] | 2.66
9 | CCOc1ccc(NC(=O)c2ccc(-c3nnc4ccc(NC(=O)C5CC5)cn34)cc2)cc1 [NCGC00429851-01] | 2.99
10 | CC(C)(C)NC(=O)c1ccc(-c2nnc3ccc(NC(=O)C4CC4)cn23)cc1 [NCGC00429854-01] | 9.44
11 | CCN(CC)C(=O)c1ccc(-c2nnc3ccc(NC(=O)C4CC4)cn23)cc1 [NCGC00429860-01] | 2.99
12 | COc1cccc(NC(=O)c2ccc(-c3nnc4ccc(NC(=O)C5CCC5)cn34)cc2)c1 [NCGC00429881-01] | 3.76
13 | COc1ccc(NC(=O)c2ccc(-c3nnc4ccc(NC(=O)C5CCC5)cn34)cc2)cc1 [NCGC00429884-01] | 4.22
14 | O=C(NCCc1cccnc1)c1ccc(-c2nnc3ccc(NC(=O)C4CCC4)cn23)cc1 [NCGC00429899-01] | 6.68
15 | O=C(NCCc1ccncc1)c1ccc(-c2nnc3ccc(NC(=O)C4CCC4)cn23)cc1 [NCGC00429902-01] | 2.99
16 | O=C(NCCN1CCCCC1)c1ccc(-c2nnc3ccc(NC(=O)C4CCC4)cn23)cc1 [NCGC00429914-01] | 13.3
17 | CCOC(=O)C1(Cc2cccc(Cl)c2)CCCNC1 (stereo not shown) [NCGC00430131-01] | 8.41
18 | CCOC(=O)C1CCN(C(=O)c2cc3c(n2C)CCN(Cc2ccccc2)C3)CC1 [NCGC00430564-01] | 10.6
19 | COc1cccc(CN2CCc3c(cc(C(=O)NCc4ccccn4)n3C)C2)c1 [NCGC00430584-01] | 15
20 | COc1ccc(CC(=O)NCc2cc(C)cc3c(C)c(C)[nH]c23)c(OC)c1 [NCGC00431513-01] | 8.41
21 | Cc1cccc(-c2cc(C3CCN([S+](=O)([O-])c4cccc(C#N)c4)CC3)[nH]n2)c1 [NCGC00433033-01] | 15

Row | Structure (SMILES) | AC50 [µM]
22 | CN1CCN(Cc2ccccc2Oc2ccc(C(F)(F)F)cn2)CC1 [NCGC00433787-01] | 0.531
23 | CC(=O)Nc1ccc(NC(=O)c2c(C)oc3ccn(Cc4ccc(F)cc4)c(=O)c23)cc1 [NCGC00433889-01] | 10.6
24 | COc1ccc(CC(=O)N2CCC(Oc3ncccc3C(=O)N3CCCCC3)C2)cc1 (stereo not shown) [NCGC00434230-01] | 9.44
25 | NCCc1cccc(CN2CCCC(COc3ccccc3F)C2)c1 (stereo not shown) [NCGC00434821-01] | 2.66
26 | c1cnc(N2CCOCC2)c(OC2CCNC2)n1 (stereo not shown) [NCGC00434832-01] | 7.5
27 | Cc1ccc2c(C)c(C(=O)N3CCCC3c3nc(C(C)C)no3)oc2c1C (stereo not shown) [NCGC00435047-01] | 6.68
28 | C=CCCC(CN1CCCC1)Oc1ccc(C(=O)N2CCCC2)cn1 (stereo not shown) [NCGC00435125-01] | 13.3
29 | COc1cc(=O)n2c(c1C(=O)Nc1ccc(N(C)C)cc1)CCCC2 [NCGC00435410-01] | 10.6
30 | COc1ccc(-c2cc(N3CCN(C(=O)c4c[nH]c5ccccc45)CC3)[nH]n2)cc1 [NCGC00436860-01] | 15
31 | COc1cc(C(=O)NC2CCN(c3cc(-c4ccccc4)n[nH]3)CC2)cc(OC)c1OC [NCGC00436906-01] | 5.96
32 | CN1CCN(C(=O)C2(N(C)CCc3ccccc3)Cc3ccccc3C2)CC1 [NCGC00438807-01] | 2.66
33 | O=C(NCCN1CCCC1)C1CN([S+](=O)([O-])c2cccs2)CC12CCCCC2 (stereo not shown) [NCGC00439935-01] | 13.3
34 | COc1ccc(C)cc1NC(=O)N1CCCC2(C1)Nc1cccnc1N=C2NC1CCCC1 (stereo not shown) [NCGC00440441-01] | 6.68
35 | CC(C)Nc1nccc(C2(c3ccccc3Cl)CCNCC2)n1 [NCGC00440810-01] | 9.44
36 | CCCNC(=O)N1CC(Oc2cccc(-c3nc(-c4ccccc4)no3)c2)C1 [NCGC00441277-01] | 13.3
37 | CCn1ccc2ccc(CN3CCCC(O)(CN4CCCC4)C3)cc21 (stereo not shown) [NCGC00441341-01] | 7.5
38 | CCn1cc(CN2CCCC23CCN(c2cc(C)nc4ccccc24)CC3)c(C)n1 [NCGC00442249-01] | 4.22
39 | O=C(c1cccs1)N1CCC(O)(c2ccccc2)[C@H](N2CCCC2)C1 (stereo partly shown) [NCGC00442580-01] | 9.44
40 | O[C@]1(c2ccccc2)CCN(Cc2ccncc2)C[C@H]1N1CCCC1 [NCGC00442600-01] | 9.44
41 | O[C@]1(c2ccccc2)CCN(Cc2ccco2)C[C@H]1N1CCCC1 [NCGC00442602-01] | 8.41
42 | Cc1nn(CCC(=O)N[C@H]2CC[C@H]2NC2CCCCC2)c(C)c1C [NCGC00442733-01] | 6.68

Row | Structure (SMILES) | AC50 [µM]
43 | COc1ccccc1C(=O)N1CCC2(CC1)c1nccn1-c1ccccc1CN2CC(C)C [NCGC00442752-01] | 11.9
44 | CCn1ncc(CN2CCCC23CCN(c2cc(C)nc4ccccc24)CC3)c1C [NCGC00442843-01] | 5.31
45 | CC(C)n1cc(CN2CCCC23CCN(c2ccc(C(F)(F)F)cn2)CC3)cn1 [NCGC00442913-01] | 9.44
46 | Cc1ccc(O)c(CN2CCCC(c3nc(CC(C)C)no3)C2)c1 (stereo not shown) [NCGC00443337-01] | 9.44
47 | CN1CCCC(CN(CCc2ccccc2)C(=O)c2cc(C#N)cn2C)C1 (stereo not shown) [NCGC00443707-01] | 9.44
48 | CN(C)C(C(=O)N1CCC(F)(F)CC1)c1ccccc1F (stereo not shown) [NCGC00444487-01] | 15
49 | Cc1ccc([S+](=O)([O-])N2CCC(OC3CCN(Cc4ccccc4)CC3)CC2)cc1C [NCGC00444948-01] | 15
50 | Cc1ccc(NC(=O)N2CCC(OC3CCN([S+](C)(=O)[O-])CC3)CC2)cc1F [NCGC00445040-01] | 15
51 | CC(C)[C@@H]1CN([S+](=O)([O-])c2ccc(Cl)cc2Cl)C[C@H]1N(C)C [NCGC00445159-01] | 6.68
52 | CC(C)c1ccccc1NC(=O)Cn1cccc1-c1nc(-c2ccccc2)no1 [NCGC00445236-01] | 4.22
53 | CC(C)c1ccccc1NC(=O)Cn1cccc1-c1nc(-c2ccc(F)cc2)no1 [NCGC00445438-01] | 2.99
54 | COc1cccc(NC(=O)Cn2cccc2-c2nc(-c3ccc(OC)c(F)c3)no2)c1 [NCGC00445448-01] | 6.68
55 | COc1ccc(NC(=O)Cn2cccc2-c2nc(-c3ccc(OC)c(F)c3)no2)cc1 [NCGC00445480-01] | 4.73
56 | COc1ccc(-c2noc(-c3cccn3CC(=O)Nc3ccccc3C)n2)cc1F [NCGC00445484-01] | 5.31
57 | COc1ccc(-c2noc(-c3cccn3CC(=O)Nc3ccc(C)cc3C)n2)cc1F [NCGC00445492-01] | 10.6
58 | CC(=O)Nc1cccc(C(=O)N2CCC3(CC2)NC(c2ccc(C)cc2)=NO3)c1 [NCGC00446797-01] | 0.841
59 | Cc1ccc(C)c(C(=O)N2CCC3(CC2)NC(c2ccc(Cl)cc2)=NO3)c1 [NCGC00447013-01] | 9.44
60 | CC(C)(C)c1ccc(C(=O)N2CCN(C(=O)c3nnn4c3COC(c3ccccc3)C4)CC2)cc1 (stereo not shown) [NCGC00449161-01] | 10.6
61 | CCOc1ccccc1C(=O)N1CCN(C(=O)c2nnn3c2COC(c2ccccc2)C3)CC1 (stereo not shown) [NCGC00449179-01] | 16.8
62 | CC(C)(C)c1ccc(-c2noc(-c3ncn4c3COC(c3ccc(F)cc3)C4)n2)cc1 (stereo not shown) [NCGC00449976-01] | 15
63 | Cc1ccc(-n2c(C3CCN(C(=O)COc4ccc(Cl)cc4)CC3)n[nH]c2=O)cc1 [NCGC00451295-01] | 10.6

Row | Structure (SMILES) | AC50 [µM]
64 | COc1cccc([S+](=O)([O-])N2CCC3(CC2)CC(N(C)Cc2ccccc2)CCO3)c1 (stereo not shown) [NCGC00453781-01] | 8.41
65 | Cc1cn2nc(C(=O)Nc3ccc(N(C)C)cc3)cc2c(N(C)Cc2ccccc2)n1 [NCGC00454159-01] | 15
66 | CCOc1ccc(NC(=O)c2nnn3cc(C)[nH]c(=O)c23)cc1 [NCGC00454245-01] | 10.6
67 | Cc1ccc(C2Cn3nnc(-c4noc(-c5n[nH]c6c5CCCC6)n4)c3CO2)cc1 (stereo not shown) [NCGC00454353-01] | 13.3
68 | Cc1cc2nc3n(c(=O)c2n1CC(=O)Nc1ccccc1C(C)C)CCCCC3 [NCGC00455404-01] | 8.41
69 | COc1ccc2[nH]cc(CCNC(=O)C3(Cc4ccccc4)CCCCC(=O)N3)c2c1 (stereo not shown) [NCGC00456177-01] | 5.96
70 | COc1ccc(CCC(=O)N2Cc3ccccc3OC3(CCN(C)CC3)C2)cc1 [NCGC00456460-01] | 7.5
71 | CN1CCC2(CC1)CN(C(=O)CCc1ccccc1)Cc1ccccc1O2 [NCGC00456463-01] | 6.68
72 | CC(C)C(=O)N1Cc2ccccc2OC2(CCN(C(C)C)CC2)C1 [NCGC00456474-01] | 10.6
73 | CC(C)N1CCC2(CC1)CN(C(=O)Cc1cccc(F)c1)Cc1ccccc1O2 [NCGC00456475-01] | 15
74 | O=C(NCCCN1CCc2ccccc2C1)C1Cn2cccc2C(=O)N1Cc1ccccc1 (stereo not shown) [NCGC00456658-01] | 9.44
75 | O=C(c1cccs1)N1CCCCCC1CN1CCCC1 (stereo not shown) [NCGC00456696-01] | 10.6
76 | CC1CCN(CC2CCCCCN2C(=O)Cc2ccccc2)CC1 (stereo not shown) [NCGC00456721-01] | 9.44
77 | CC1CCN(CC2CCCCCN2C(=O)NCc2ccc(F)cc2)CC1 (stereo not shown) [NCGC00456722-01] | 13.3
78 | COc1cccc(CC(=O)N2CCCC(CN3CCCC3)CC2)c1 (stereo not shown) [NCGC00456752-01] | 15
79 | CCC(C(=O)NCCn1ccn2nc(-c3ccc(OC)cc3)cc2c1=O)c1ccccc1 (stereo not shown) [NCGC00456905-01] | 15
80 | O=C(Cc1ccc(Cl)cc1)NCc1nnc2cc(-c3nc(C4CC4)no3)ccn12 [NCGC00457746-01] | 7.5
81 | CCn1cc(CN2CC(Oc3ccc(-c4noc(-c5ccncc5)n4)cc3)C2)cn1 [NCGC00458017-01] | 13.3
82 | COc1ccc(CN2CC(Oc3ccccc3C(=O)NCc3ccccc3)C2)c(OC)c1 [NCGC00458086-01] | 10.6
